{
  "source": "patent US20190125864A1",
  "about": "“COMBINATION THERAPY OF RAMUCIRUMAB AND ABEMACICLIB FOR USE IN TREATMENT OF MANTLE CELL LYMPHOMA” (Eli Lilly and Company, priority 2016, published 2019)",
  "system": "human Mino xenografts",
  "assay": "IVEF study: growth inhibition of subcutaneous Mino xenografts (mantle cell lymphoma) in mice",
  "format": "in vivo",
  "conditions": "for % ΔT/C: day 53, baseline day 32",
  "procedure": "This study evaluates the overall sensitivity of the Mino xenograft model for mantle cell lymphoma (MCL) to growth inhibition by abemaciclib. Accordingly, mice are implanted subcutaneously with human Mino xenografts treated once-daily for 28 days (QD×28) with 25 or 50 mg/kg of abemaciclib monomesylate (“compound”). In addition the response of this model to single-agent DC101, an antibody inhibitor of VEGFR2, is also evaluated as well as the combination of this antibody with abemaciclib. DC101, which is a mouse surrogate of ramucirumab, is evaluated in these studies at a dose of 20 mg/kg given twice-weekly over a period of 4 weeks (BIW×4) whereas mice in the combination group are given this dose of DC101 plus 25 mg/kg of abemaciclib. Tumor volume measurements are taken periodically to determine the effects of the various treatments on tumor growth and periodic body weight measurements are used as a general indicator of tolerability.\nFemale Fox Chase CB17SCID (Harlan Laboratories) mice are used for these studies. The animals are housed until they reach 18-20 […] in size.\nThe compound is formulated in 1% hydroxyethyl cellulose (HEC) in 25 mM phosphate buffer (PB) pH=2. The compound is formulated on a weekly basis and stored at 4° C. For the efficacy studies, the compound is administered by oral gavage once-daily for 28 days (PO, QD×28) at doses of 25 or 50 mg/kg using 0.2 ml/dose beginning on day 33 after tumor implantation. The control group is given 1% HEC vehicle according to the same schedule for the compound. The mouse surrogate for ramucirumab known as DC101 is formulated in phosphate buffered saline (PBS) and is given twice-weekly (BIW) for 4 weeks as an intraperitoneal (IP) injection at a dose of 20 mg/kg beginning on day 34. Mice in the combination group are given 25 mg/kg of the compound and 20 mg/kg of DC101 following the schedules outlined above for the monotherapy groups.\nThe human MCL line Mino is grown in RPMI 1640 medium+20% fetal bovine serum (FBS). Sub-confluent cells are harvested and rinsed twice with Hank's balanced saline solution (HBSS) without serum. For subcutaneous tumors, growth is initiated by subcutaneous injection of 5×10^6 cells in a 1:1 mixture of HBSS and MATRIGEL® (BD Bioscience, Franklin Lakes, N.J.) in the rear flank of each subject animal. When mean tumors volumes reach approximately 150 mm^3 in size, the animals are randomized by tumor size and body weight using a proprietary block randomization allocation tool and placed into their respective treatment groups using 7 animals per group.\nTumor size and body weight are captured using WEB DIRECTOR™. Tumor volume (V) is estimated by using the formula: V=0.536L×W^2 where L=larger of measured diameter and W=smaller of perpendicular diameter. The tumor volume data is transformed to a log scale to equalize variance across time and treatment groups. The log volume data ae analyzed with a two-way repeated measures analysis of variance by time and treatment using the MIXED procedures in SAS software (Version 9.3). The correlation model for the repeated measures is Spatial Power. Treated groups are compared to the control group at each time point. The MIXED procedure is also used separately for each treatment group to calculate adjusted means and standard errors at each time point. Both analyses accounted for the autocorrelation within each animal and the loss of data that occur when animals with large tumors are removed from the study early. The adjusted means and standard errors are plotted for each treatment group versus time.\nRelative changes in tumor volume (% ΔT/C) are calculated using the tumor volume measurements taken on the day (day 53) when the control group has to be sacrificed due to tumor sizes that exceeded the threshold defined by ethical guidelines. […]",
  "data": [
    {"smiles": "CCN1CCN(Cc2ccc(Nc3ncc(F)c(-c4cc(F)c5nc(C)n(C(C)C)c5c4)n3)nc2)CC1", "note": "[Compound, [5-(4-ethyl-piperazin-1-ylmethyl)-pyridin-2-yl]-[5-fluoro-4-(7-fluoro-3-isopropyl-2-methyl-3H-benzoimidazol-5-yl)-pyrimidin-2-yl]-amine]", "values": [
      {"measurement": "% ΔT/C", "setting": "25 mg/kg Compound PO QD×28, 25 mg/kg", "value": 5.2, "unit": "%"},
      {"measurement": "% ΔT/C", "setting": "25 mg/kg Compound PO QD×28, listed as compound, 25 mg/kg", "value": "approximately 5%"},
      {"measurement": "% ΔT/C", "setting": "50 mg/kg Compound PO QD×28, negative value = % regression", "value": "−63.6", "unit": "%"},
      {"measurement": "Mean Tumor Volume", "setting": "day 53, 25 mg/kg Compound PO QD×28, CB17SCID mice, subcutaneous Mino xenografts", "value": 317.4, "unit": "mm^3"},
      {"measurement": "Mean Tumor Volume", "setting": "day 53, 50 mg/kg Compound PO QD×28, CB17SCID mice, subcutaneous Mino xenografts", "value": 55.4, "unit": "mm^3"},
      {"measurement": "mice achieved a partial response (PR)", "setting": "day 53, 50 mg/kg abemaciclib, 7 of 7 mice", "value": 100, "unit": "%"},
      {"measurement": "mean tumor volume reduced (regression)", "setting": "day 53, 50 mg/kg compound", "value": 64, "unit": "%"},
      {"measurement": "Mean Tumor Volume", "setting": "day 60 (last day of dosing), 25 mg/kg Compound PO QD×28", "value": 348.6, "unit": "mm^3"},
      {"measurement": "Mean Tumor Volume", "setting": "day 60 (last day of dosing), 50 mg/kg Compound PO QD×28", "value": 37.9, "unit": "mm^3"}
    ]}
  ]
}
